Test results published in US20240325548A1, “DYNAMIC BIOACTIVE SCAFFOLDS AND THERAPEUTIC USES THEREOF AFTER CNS INJURY” (Northwestern University, priority 2021, published 2024).

Experiments:
hNPCs = experiment: hNPC attachment, proliferation and phenotype on co-assembled PA coatings (EdU, SOX-2, PAX6); assay type: cell-based, human
Excerpt: Neural progenitor cells (NPCs) were differentiated from human embryonic stem cells HUES 64 (Harvard University) (see FIG. 2C). In short, 70% confluent stem cell cultures grown in Matrigel (Thermo Fisher) coated plates with mTESR medium (STEMCELL Technologies), were switched to N2B27 medium (50% DMEM: F12, 50% Neurobasal, supplemented with NEAA, Glutamax, N2 and B27; Gibco) containing dual SMAD inhibitors (SB431542, DNSK International and LDN-193189, Tocris) for 12 days to induce the generation of neural progenitors. Neuralization was enhanced by supplementing medium with laminin from day 5 to 12. Next, neural rosettes were dissociated with neural rosette selection reagent (STEMCELL Technologies) to obtain NPCs, which are expanded in N2B27 (Gibco) medium supplemented with bFGF (Millipore). For experimentation in the different PA platforms, NPCs were dissociated with Accutase (Innovative Cell technology), and cultured in the distinct platforms with DMEM: F12+N2+B27 medium with hyclone penicillin-streptomycin (GE Healthcare) and ascorbic acid (0.2 μg/mL; Sigma-Aldrich).
(§1) For IKVAV PA treatments, hNPCs were cultured on ornithine coatings (German Glass, Chemglass Life Science) in 6 well and 24 well plates at a density of 500,000 cells/well and 80,000 cells/well respectively. hNPCs were treated with […] of IKVAV PAs ([PA]=6 mM, [KCl]=3 mM, [NaCl]=150 mM) or recombinant laminin protein (10 mg/mL) in solution. IKVAV PA2 and IKVAV PA5 were also mixed with 5 mM CaCl2) at a ratio PA:CaCl2) 6:1 to treat hNPCs. For 2D experiments, hNPCs were cultured on the different IKVAV PAs or laminin coatings in 6 well and 24 well plates at densities mentioned above. For co-assembled experiments, hNPCs were cultured on the different co-assembled PA coatings in 6 well and 24 well plates at a density of 400,000 cells/well and 50,000 cells/well respectively.
(§2) hNPCs were fed 4 times a week with DMEM: F12+N2^+B27 medium with hyclone penicillin-streptomycin and ascorbic acid. After 24 h, 72 h 1- or 2-weeks in vitro, cell lysates were harvested or fixed for WB or ICC, respectively. Three replicates per condition and at least three independent experiments were carried out for all conditions investigated.
For the hNPCs proliferation assay, 2 μM of the thymidine analog 5-ethynyl-2′-deoxyuridine (EdU, Thermo Fisher) was incorporated into the culture medium for 24 h. Cells were fixed at the indicated time points in 4% paraformaldehyde (PFA) for 15 min at RT. After fixation, samples were washed in PBS twice and then stained with Click-iT™ EdU Cell Proliferation Kit containing 11 mM CuSO4 (from 50 mM stock) and 1 μg/mL of Alexa Fluor-555 azide (from 0.5 mg/mL, Thermo Fisher) for 30 minutes at RT in the dark. The staining cocktail was then removed, and cells were washed with PBS. Then, hNPCs were counterstained with anti-rabbit SOX-2 antibody following the immunofluorescence protocol described below and 4′, 6-diamidino-2-phenylindole (DAPI, Thermo Fisher) at 5 μg/mL in PBS for 20 min at RT. The cells were then washed with PBS and mounted with Immu-Mount (Fisher Scientific) for imaging.
For immunofluorescence, fixed primary cultures or free-floating tissue sections (40 m Thick) were incubated in blocking buffer containing 0.02% Triton-X (Sigma-Aldrich), 1% NHS (Gibco) and PBS 1× (Gibco). Samples were incubated with primary antibodies over night at 4° C. Alexa-488, Alexa-555 and/or Alexa-647 (1:500, Thermofisher) were used as secondary antibodies. DAPI (1:500, Thermofisher) was used to stain nuclei. […]

[1] = system: human umbilical vein vascular endothelial cells (HUVECs); experiment: HUVEC branching / capillary network formation; assay type: cell-based; conditions: within 48 h of culture
Experimental: (§3) Human umbilical vein cord (HUVECs) (pooled donor, LONZA, Allendale, New Jersey) were grown to 70-80% confluence for each experiment (P2-P4) in a T-75 cell culture flask using complete media (Endo GRO-VEGF Complete Culture Media Kit, Millipore) supplemented with 1% penicillin-streptomycin. Media was changed every 3 days.
Treatments were prepared by dissolving the co-assembled PAs in media without serum. The total concentration of FGF2 PAs per treatment was 0.5 μM. FGF-2 native protein (Peprotech) was resuspended and used at 0.25 nM. For western blot experiments, HUVEC were cultured in 12 well plates at a density of approximately 150,000 cells/well for 2 days in vitro before being treated. Treatments were added for 2 h-2 days in vitro before cell lysates were harvested or cells were fixed. […]
To assess in vitro tubulogenesis and in vivo angiogenesis, an ImageJ (Fiji) script was established to automatically calculate 1) area fraction of blood vessels, 2) blood vessels length, and 3) number of branches. Images were processed, binarized and analyzed. Newly generated blood vessels in vivo were identified by quantifying the amount of CD31/BrdU double-positive cells within the region of interest. […] The quantified cross sections were chosen as the first serial cross sections within the lesion that had DiI staining.

FGFR1 = target: T1, FGFR1 (Homo sapiens, UniProt P11362); experiment: FGF-2 intracellular signaling pathway in HUVECs (WB p-FGFR1, p-ERK1/2); assay type: cell-based
T1 construct: host or cells: HUVECs (pooled donor)
T1 sequence (P11362 22-822): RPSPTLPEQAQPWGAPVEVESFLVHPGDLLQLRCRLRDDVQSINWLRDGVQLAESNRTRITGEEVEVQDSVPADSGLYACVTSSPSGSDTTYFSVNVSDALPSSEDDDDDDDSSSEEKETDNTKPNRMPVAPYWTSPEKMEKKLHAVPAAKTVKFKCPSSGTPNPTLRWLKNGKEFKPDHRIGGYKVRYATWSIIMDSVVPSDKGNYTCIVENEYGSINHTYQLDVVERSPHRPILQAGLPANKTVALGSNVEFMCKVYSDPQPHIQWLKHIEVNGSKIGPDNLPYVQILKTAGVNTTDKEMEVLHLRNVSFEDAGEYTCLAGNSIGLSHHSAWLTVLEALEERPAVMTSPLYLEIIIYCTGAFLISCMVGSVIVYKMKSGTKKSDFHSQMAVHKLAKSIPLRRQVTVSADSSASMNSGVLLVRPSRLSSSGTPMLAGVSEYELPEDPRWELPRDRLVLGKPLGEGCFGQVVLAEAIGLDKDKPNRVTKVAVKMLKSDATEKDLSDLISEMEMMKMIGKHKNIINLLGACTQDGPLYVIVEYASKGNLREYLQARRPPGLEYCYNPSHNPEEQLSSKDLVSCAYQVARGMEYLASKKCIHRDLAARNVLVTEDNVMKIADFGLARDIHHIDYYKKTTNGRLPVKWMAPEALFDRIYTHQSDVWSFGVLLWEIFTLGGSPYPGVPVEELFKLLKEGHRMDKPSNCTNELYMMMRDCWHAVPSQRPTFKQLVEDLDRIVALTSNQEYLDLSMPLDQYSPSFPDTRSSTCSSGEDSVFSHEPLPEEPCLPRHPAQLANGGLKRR
Experimental: as §3
Treatments were prepared by dissolving the co-assembled PAs in media without serum. The total concentration of FGF2 PAs per treatment was 0.5 μM. FGF-2 native protein (Peprotech) was resuspended and used at 0.25 nM. For western blot experiments, HUVEC were cultured in 12 well plates at a density of approximately 150,000 cells/well for 2 days in vitro before being treated. Treatments were added for 2 h-2 days in vitro before cell lysates were harvested or cells were fixed. For PA coatings, PAs were painted on the coverslips (German Glass, Chemglass Life Science) or tissue culture plates as described in the Co-assembled PA preparation section. Three replicates per condition and three independent experiments were carried out for all conditions investigated.
(§4) RIPA buffer (Thermofisher) with a cocktail of Halt Protease and Phosphatase Inhibitors (Thermofisher) was used to extract protein from in vitro and in vivo samples. For in vivo studies, spinal cord tissue was then sonicated using a horn sonicator (Branson) to break up the tissue. […]

FGFR1 and ITGB1 = target: T2, FGFR1 and ITGB1 (Homo sapiens, UniProt P11362); experiment: p-FGFR1 and active ITGB1 in hNPCs on co-assembled PA coatings (WB); assay type: cell-based
T2 construct: endogenous in cells; host or cells: hNPCs differentiated from human embryonic stem cells HUES 64, seeded on co-assembled PA coatings
T2 sequence (P11362 22-822): as above
Experimental: as §1, §2, §4

levels of p-FGFR1 and downstream p-ERK1/2 (FGFR1): high levels | P-FGFR-1 expression (FGFR1 and ITGB1): highly expressed
Substance: native FGF-2: FGF-2 native protein (Peprotech), positive control
percentage of proliferating EdU+ and SOX2+ cells (hNPCs): increased | branching and vessel-like capillary network formation [1]: extensive branching and formation of vessel-like capillary networks
